Measured values published in patent publication US20260085058A1, “DEGRADERS OF SON OF SEVENLESS HOMOLOG 1” (H. LEE MOFFITT CANCER CENTER AND RESEARCH INSTITUTE, INC., priority 2022, published 2026).

Target: T1, SOS1 (Homo sapiens, UniProt Q07889)
T1 sequence (Q07889 1-1333): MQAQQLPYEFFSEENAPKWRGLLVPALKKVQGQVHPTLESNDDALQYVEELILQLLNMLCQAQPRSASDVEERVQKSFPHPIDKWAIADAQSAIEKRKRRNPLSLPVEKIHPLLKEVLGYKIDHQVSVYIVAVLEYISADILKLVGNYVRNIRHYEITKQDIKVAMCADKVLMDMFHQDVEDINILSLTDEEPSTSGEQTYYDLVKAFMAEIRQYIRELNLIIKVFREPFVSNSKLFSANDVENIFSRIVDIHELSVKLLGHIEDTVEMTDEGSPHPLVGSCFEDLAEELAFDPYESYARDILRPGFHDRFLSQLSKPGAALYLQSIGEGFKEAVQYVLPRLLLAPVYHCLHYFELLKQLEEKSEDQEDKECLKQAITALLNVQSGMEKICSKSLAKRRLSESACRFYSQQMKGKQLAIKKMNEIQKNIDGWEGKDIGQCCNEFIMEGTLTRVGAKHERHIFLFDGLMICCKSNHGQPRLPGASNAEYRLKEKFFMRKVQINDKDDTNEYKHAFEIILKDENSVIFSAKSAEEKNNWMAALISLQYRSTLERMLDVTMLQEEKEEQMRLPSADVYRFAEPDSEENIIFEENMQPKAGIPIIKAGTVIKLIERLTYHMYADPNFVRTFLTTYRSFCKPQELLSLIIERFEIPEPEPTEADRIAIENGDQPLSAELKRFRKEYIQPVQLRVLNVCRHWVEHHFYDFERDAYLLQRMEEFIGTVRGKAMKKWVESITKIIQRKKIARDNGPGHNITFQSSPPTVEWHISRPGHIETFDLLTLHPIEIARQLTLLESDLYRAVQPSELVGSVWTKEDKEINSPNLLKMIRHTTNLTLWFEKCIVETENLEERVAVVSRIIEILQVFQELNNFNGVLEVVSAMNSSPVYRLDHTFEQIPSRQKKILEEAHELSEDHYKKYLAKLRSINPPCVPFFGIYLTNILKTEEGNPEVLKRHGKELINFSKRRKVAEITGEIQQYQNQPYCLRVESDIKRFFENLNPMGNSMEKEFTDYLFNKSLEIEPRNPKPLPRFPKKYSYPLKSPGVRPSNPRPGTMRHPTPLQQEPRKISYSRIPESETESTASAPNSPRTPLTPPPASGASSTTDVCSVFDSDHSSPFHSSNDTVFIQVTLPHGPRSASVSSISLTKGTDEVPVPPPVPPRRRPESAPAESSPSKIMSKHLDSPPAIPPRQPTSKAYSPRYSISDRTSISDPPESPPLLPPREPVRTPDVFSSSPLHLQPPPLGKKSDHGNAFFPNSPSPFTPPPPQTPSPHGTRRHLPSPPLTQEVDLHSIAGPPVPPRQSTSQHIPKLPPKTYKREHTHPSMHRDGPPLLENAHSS
Test: SOS1 degradation by immunoblot in colorectal cancer cell lines
Format: cell-based
Set-up: endogenous in cells; host or cells: SW620, HCT116, C2BB, SW1417
Details: SW620 cells, 1 μM, different time points
Experimental: SW620, HCT116, C2BB, and SW1417 were purchased from the American Type Culture Collection. […] They were incubated under a 5% (v/v) CO2 atmosphere at 37° C.
Cells were plated in a 100 mm dish for incubation overnight before harvest for immunoblot. For drug treatment, cell confluency was checked prior to proceeding with the treatment. […] Approximately 40 μg protein samples were loaded into each well and separated by SDS-PAGE gel. After protein transfer onto nitrocellulose membranes, 5% skim milk in TBST was used to block the membranes for 1 hour at room temperature prior to incubation with primary antibodies overnight at 4° C. At the completion, a horseradish peroxidase-conjugated secondary antibody was applied at room temperature for 1 hour. The bands were visualized using Western Lightning Plus-ECL (PerkinElmer).

For `COc1cc2c(N[C@H](C)c3cc(N)cc(C(F)(F)F)c3)nc(C)nc2cc1OCc1cccc2c1C(=O)N(C1CCC(=O)NC1=O)C2=O` (stereo partly drawn) [P2, 4-(((4-(((R)-1-(3-amino-S-(trifluoromethyl)phenyl)ethyl)amino)-6-methoxy-2-methylquinazolin-7-yl)oxy)methyl)-2-(2,6-dioxopiperidin-3-yl)isoindoline-1,3-dione], the “Time-dependent SOS1 degradation” value was “not observed”.
